Assays:
Panc2-H7 cells = assay: Panc2-H7 model of pancreatic cancer, subcutaneous tumors; format: in vivo, C57BL/6J male mice; conditions: SC
Experimental: (§1) A representative compound of Formula IV, bis RvE1 magnesium di-lysinate (Compound 1), was tested for efficacy in several preclinical mouse models including the Panc2-H7 model of pancreatic cancer, and the MC38 model of colorectal cancer. These models are well established, highly tumorigenic syngeneic models in which murine cancer cell lines are injected subcutaneously (SC) into the dorsum of C57BL/6J mice. If left untreated, these tumors grow rapidly and lead to death or euthanasia, per protocol. As detailed below in Examples 1-4 and the accompanying figures, bis RvE1 Mg-di-lysinate (Compound 1) was unexpectedly effective as an anti-cancer agent in each of these model systems when administered in a less than daily (LTD) dosing regimen. […] Without being bound by any theory, the surprising efficacy of LTD dosing of resolvins in the model systems described here may be the result of durable effects on the inflammatory phenotype of the tumor microenvironment including changes in immune cell phenotype, vascularization, stromal phenotype, and antigen presentation, as well as durable effects on the T-cell compartment such as T-cell priming and increased tumor-infiltrating lymphocytes.
Based on the previous findings in the MC38 colorectal cancer model with less than daily (LTD) dosing, a study in the Panc2-H7 model was conducted to assess the efficacy of LTD dosing of bis RvE1 Mg-di-lysinate in a different tumor model. A total of forty (40) C57BL/6J male mice were injected subcutaneously with 1×10e6 living Panc2-H7 cells. Once tumors reached 160-320 mm^3 in size, the mice were randomized (n=8 per group) to treatment with vehicle or SC injection with bis RvE1 Mg-di-lysinate at 30 ug/kg and 300 ug/kg (QD, Q7D).

MC-38 cells = assay: MC38 model of colorectal cancer, subcutaneous tumors; format: in vivo, C57BL/6J male mice; conditions: 300 ug/kg, SC, P<0.05 vs placebo
Experimental: as §1, with “lymphocytes. […]” for “lymphocytes.”

[1] = Subcutaneous PK study of RvE1-Mg-Lys; format: in vivo, C57BL/6J mice; conditions: 100 or 300 ug/kg subcutaneous injection; baseline to 8 hours
Experimental: (§2) In the subcutaneous PK study, sixty-nine (69) C57BL/6J mice were administered 100 or 300 ug/kg doses of RvE1-Mg-Lys via subcutaneous injection. Mice were sacrificed and plasma was drawn at the following timepoints: baseline, 5, 15, 30 min, 1, 2, 4 and 8 hours (n=5 mice per timepoint). In the IV and oral PK studies, one-hundred eighty (180) Balb/c mice were administered RvE1-Na at 1 or 10 mg/kg via subcutaneous injection, IV injection, oral gavage (n=6 mice per timepoint). Plasma and lung tissue were assayed at the following timepoints: 0.25, 0.5, 1, 2, 6, 10 and 24 hours. […] Without being bound by any theory, the surprising efficacy of LTD dosing of resolvins in the cancer model systems described here may be the result of durable effects on the tumor microenvironment including changes in immune cell phenotype, vascularization, stromal phenotype, and antigen presentation, as well as durable effects on the T-cell compartment such as T-cell priming and increased tumor-infiltrating lymphocytes.

subcutaneous KPC tumors = assay: RNAseq cell enrichment analysis of tumor samples; format: in vivo, mice; conditions: Q6D treatment, Day 26, compared to placebo
Experimental: RNAseq analysis was performed on tumor samples from mice with subcutaneous KPC tumors sacrificed on Day 26 following treatment (Q6D) with bis RvE1 Mg-di-lysinate (Compound 1) compared to placebo. […] Darker color indicates increased gene expression, for various immune cells and other cells, as listed across the top of the heatmap. The boxed cells shown in FIG. 4 indicate an increase in markers of monocytes and DC cell subset (cDCs, pDCs, and iDCs) and markers of NK, CD8+ T cells, Th1 cells, and memory T cells (CD8+ and CD4+) with Compound 1 treatment. […] Namely, these unexpected results may be due to durable effects on the tumor microenvironment including changes in immune cell phenotype and the T-cell compartment such as T-cell priming and increased tumor-infiltrating lymphocytes.

[2] = test system: polymorphonuclear leukocyte (PMN) recruitment; conditions: equimolar dose; cited from earlier work
[3] = test system: CD4+ and CD8+ cells in the liver; conditions: concanavalin A-induced murine model; cited from earlier work
[4] = PK studies of RvE1-Na (subcutaneous, IV, oral), plasma and lung tissue; format: in vivo, Balb/c mice; conditions: 0.25-24 hours
Experimental: as §2

CC[C@@H](O)/C=C/C=C\C[C@@H](O)/C=C/C=C/C=C\[C@@H](O)CCCC(=O)O [Compound 1, bis RvE1 Mg-di-lysinate]
tumor volume (Day 20 vs Day 0), inhibition relative to placebo control (Panc2-H7 cells; 30 ug/kg, Q7D): demonstrated inhibition relative to placebo control
tumor volume (Day 20 vs Day 0), inhibition relative to placebo control (Panc2-H7 cells; 30 ug/kg, QD): demonstrated inhibition relative to placebo control
tumor volume (Day 20 vs Day 0), inhibition relative to placebo control (Panc2-H7 cells; 300 ug/kg, Q7D, P<0.05 vs placebo control): greatest inhibition
tumor volume (Day 20 vs Day 0), inhibition relative to placebo control (Panc2-H7 cells; 300 ug/kg, QD): demonstrated inhibition relative to placebo control
tumor volume (Day 15 vs Day 0), efficacy as a single agent vs placebo (MC-38 cells; Q3D): effective as a single agent
tumor volume (Day 15 vs Day 0), efficacy as a single agent vs placebo (MC-38 cells; QD): effective as a single agent
plasma levels of RvE1 over time [1]: rapid depletion
markers of NK, CD8+ T cells, Th1 cells, and memory T cells (CD8+ and CD4+), gene expression (subcutaneous KPC tumors): increase
markers of monocytes and DC cell subset (cDCs, pDCs, and iDCs), gene expression (subcutaneous KPC tumors): increase

CCC(=O)/C=C/C=C\C[C@@H](O)/C=C/C=C/C=C\[C@@H](O)CCCC(=O)O [Compound 18-oxo-RvE1, 18-oxo-RvE1]
activity in zymosan-induced peritonitis (PMN recruitment) [2]: devoid of activity

CC/C=C\C[C@H](O)/C=C/C=C\C=C\C=C\[C@@H](O)[C@@H](O)C/C=C\CCC(=O)O [RvD1, 7S,8R,17S-trihydroxy-4Z,9E,11E,13Z,15E,19Z-docosahexaenoic acid]
levels of CD4+ and CD8+ cells in the liver [3]: markedly downregulated

CC[C@@H](O)/C=C/C=C\C[C@@H](O)/C=C/C=C/C=C\[C@@H](O)CCCC(=O)O [RvE1, 5S,12R,18R-trihydroxy-6Z,8E,10E,14Z,16E-eicosapentaenoic acid]
activity in zymosan-induced peritonitis (PMN recruitment) [2]: potently reduced
levels of CD4+ and CD8+ cells in the liver [3]: markedly downregulated

CC[C@@H](O)/C=C/C=C\C[C@@H](O)/C=C/C=C/C=C\[C@@H](O)CCCC(=O)[O-].[Na+] [RvE1-Na]
plasma and lung tissue levels of RvE1 over time ([4]; 1 or 10 mg/kg IV injection): rapid depletion
plasma and lung tissue levels of RvE1 over time ([4]; 1 or 10 mg/kg oral gavage): rapid depletion
plasma and lung tissue levels of RvE1 over time ([4]; 1 or 10 mg/kg subcutaneous injection): rapid depletion

Source: patent US20240180859A1, “COMPOSITIONS AND METHODS FOR IMMUNE-MEDIATED INFLAMMATORY DISEASES” (Thetis Pharmaceuticals LLC, priority 2022, published 2024)
